ChEMBL document CHEMBL3124876, “A perylene derivative regulates HIF-1α and Stat3 signaling pathways” (Bioorg Med Chem, 2014)
Active and inactive are the calls of the source. The calls are words filed in the database; no cut-off is given here.

Organism: Homo sapiens
Assay: Inhibition of telomerase (unknown origin)

## CN(C)CCCN1C(=O)c2ccc3c4ccc5c6c(ccc(c7ccc(c2c37)C1=O)c64)C(=O)N(CCCN(C)C)C5=O
  inhibition: Active
